The target of the test is T1, human mAChR M4 (Homo sapiens, UniProt P08173).
T1 construct: expressed in transfected cells
T1 sequence (P08173 1-479): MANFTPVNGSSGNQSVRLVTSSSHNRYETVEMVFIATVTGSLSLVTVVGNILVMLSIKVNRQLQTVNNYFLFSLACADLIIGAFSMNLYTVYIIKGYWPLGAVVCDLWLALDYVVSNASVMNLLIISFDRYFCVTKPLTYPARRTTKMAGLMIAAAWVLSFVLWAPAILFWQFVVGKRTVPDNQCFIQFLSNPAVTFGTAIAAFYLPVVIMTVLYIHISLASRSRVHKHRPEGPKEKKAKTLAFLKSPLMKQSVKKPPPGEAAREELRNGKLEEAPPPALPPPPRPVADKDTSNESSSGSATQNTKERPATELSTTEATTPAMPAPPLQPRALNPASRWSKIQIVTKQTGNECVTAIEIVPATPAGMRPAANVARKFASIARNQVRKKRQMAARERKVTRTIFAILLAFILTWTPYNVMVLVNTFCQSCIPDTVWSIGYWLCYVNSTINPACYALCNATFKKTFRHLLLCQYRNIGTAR
The experiment in a line: mAChR M4 cell-based functional assay (calcium mobilization, CHO-K1 hM4-Gqi5 cells). The following applies: for Emax at 30 µM: CHO-K1, % ACh maximum at 30 μM, human M4; for EC50: positive allosteric modulator activity, increase in the EC20 acetylcholine response, CHO-K1 hM4-Gqi5 cells, read-out: Human M4 EC50. Put shortly:
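Fluorescent calcium read-out (Fluo-4 AM, FDSS, 1 Hz) in hM4-Gqi5 CHO-K1 cells, 11-point 1:3 compound series. Agonism scored on compound addition, PAM activity as increase of the 144 s EC20 acetylcholine response, antagonism as decrease of the 230 s EC80 response; four-parameter logistic fits give EC50 and Emax.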
A general note: Calcium flux is commonly read through the fluorescence of an indicator in the cells.

SMILES strings stand for the structures.

With `Cc1cc(C(=O)N2CC(F)C2)nnc1N1CCc2ncc(N3CCCn4nccc43)cc2C1` [Example 551, (6-(3-(6,7-dihydropyrazolo[1,5-a]pyrimidin-4(5H)-yl)-7,8-dihydro-1,6-naphthyridin-6(5H)-yl)-5-methylpyridazin-3-yl)(3-fluoroazetidin-1-yl)methanone], the Emax (in general, the size of the effect at its maximum, as opposed to the concentration needed) at 30 µM was determined as 111% and the 50% effective concentration (EC50) (commonly the concentration that produces a half-maximal response) is 0.044 µM.

For the compound `Cc1nc(C)c(C)c(N2CCc3ncc(-c4ccc(N5CCC5)nc4)cc3C2)n1` [compound 234, 3-(6-(azetidin-1-yl)pyridin-3-yl)-6-(2,5,6-trimethylpyrimidin-4-yl)-5,6,7,8-tetrahydro-1,6-naphthyridine], the Emax at 30 µM was 63% and the EC50 was determined as 0.354 µM.

With `Cc1cc(-c2cnc3c(c2)CN(c2nnc(C(=O)NCc4ccncc4)c(C)c2C)CC3)ccn1` [compound 189, 4,5-dimethyl-6-[3-(2-methyl-4-pyridyl)-7,8-dihydro-5H-1,6-naphthyridin-6-yl]-N-(4-pyridylmethyl)pyridazine-3-carboxamide], the Emax at 30 µM amounted to 93% and the EC50 is 0.199 µM.

Consider `Cc1cc(C(=O)N2CC(C)(F)C2)nnc1N1CCc2ncc(-n3cccn3)cc2C1` [Example 569, (6-(3-(1H-pyrazol-1-yl)-7,8-dihydro-1,6-naphthyridin-6(5H)-yl)-5-methylpyridazin-3-yl)(3-fluoro-3-methylazetidin-1-yl)methanone], for which the Emax at 30 µM is 78% and the EC50 was 0.2 µM.

Consider `Cc1cc(C(=O)NCc2nccs2)cnc1N1CCc2ncc(-c3cccnc3F)cc2C1` [compound 175, 6-[3-(2-fluoro-3-pyridyl)-7,8-dihydro-5H-1,6-naphthyridin-6-yl]-5-methyl-N-(thiazol-2-ylmethyl)pyridine-3-carboxamide], for which the Emax at 30 µM was 89% and the EC50 is 0.145 µM.

`Cc1c(C#N)nnc(N2CCc3ncc(Oc4cccc(F)c4F)cc3C2)c1C` [Example 352, 6-(3-(2,3-difluorophenoxy)-7,8-dihydro-1,6-naphthyridin-6(5H)-yl)-4,5-dimethylpyridazine-3-carbonitrile]: the maximum response (Emax) at 30 µM is 64% and the EC50 was 0.233 µM.

Consider `COC(=O)c1cnc(N2CCc3ncccc3C2)c(C)c1` [compound 71, methyl 6-(7,8-dihydro-5H-1,6-naphthyridin-6-yl)-5-methyl-pyridine-3-carboxylate], for which the concentration for a half-maximal effect (EC50) worked out at 3.38 µM. Also, where the note is “CHO-K1”, the Emax came to 102%.

Regarding `FC(F)(F)c1cnc2c(c1)CN(c1nc(Cl)nc3c1COC3)CC2` [compound 281, 2-chloro-4-(3-(trifluoromethyl)-7,8-dihydro-1,6-naphthyridin-6(5H)-yl)-5,7-dihydrofuro[3,4-d]pyrimidine], the EC50 was determined as 3.29 µM.

With `Cc1c(C(=O)NCc2ccccn2)nnc(N2CCc3ncccc3C2)c1C` [compound 137, 6-(7,8-dihydro-5H-1,6-naphthyridin-6-yl)-4,5-dimethyl-N-(2-pyridylmethyl)pyridazine-3-carboxamide], the Emax at 30 µM came out at 91% and the EC50 was 3.38 µM.

Regarding `Cc1c(C#N)nnc(N2CCc3ncc(C(F)F)cc3C2)c1C` [Example 308, 6-(3-(difluoromethyl)-7,8-dihydro-1,6-naphthyridin-6(5H)-yl)-4,5-dimethylpyridazine-3-carbonitrile], the Emax at 30 µM came out at 94% and the EC50 was 0.405 µM.

Take `Cc1cc(C(=O)NCc2ccc3ncnn3c2)cnc1N1CCc2ncccc2C1` [compound 151, 6-(7,8-dihydro-5H-1,6-naphthyridin-6-yl)-5-methyl-N-([1,2,4]triazolo[1,5-a]pyridin-6-ylmethyl)pyridine-3-carboxamide]: the Emax at 30 µM was 67% and the EC50 was determined as 3.25 µM.

Turning to `Cc1cc(C(=O)N2Cc3ccncc3C2)nnc1N1CCc2ncc(N3CCCn4nccc43)cc2C1` [Example 512, (1,3-dihydro-2H-pyrrolo[3,4-c]pyridin-2-yl)(6-(3-(6,7-dihydropyrazolo[1,5-a]pyrimidin-4(5H)-yl)-7,8-dihydro-1,6-naphthyridin-6(5H)-yl)-5-methylpyridazin-3-yl)methanone], the maximum response (Emax) at 30 µM was 95% and the half-maximal effective concentration (EC50) worked out at 0.019 µM.

Take `Cc1cc(C(=O)N2CCCC2)nnc1N1CCc2ncc(-n3cccn3)cc2C1` [Example 530, (6-(3-(1H-pyrazol-1-yl)-7,8-dihydro-1,6-naphthyridin-6(5H)-yl)-5-methylpyridazin-3-yl)(pyrrolidin-1-yl)methanone]: the maximal response (Emax) at 30 µM was 81% and the EC50 was found to be 3.03 µM.

As for `Cc1ccc(-c2cnc3c(c2)CN(c2ncc(C#N)cc2C)CC3)cn1` [compound 187, 5-methyl-6-[3-(6-methyl-3-pyridyl)-7,8-dihydro-5H-1,6-naphthyridin-6-yl]pyridine-3-carbonitrile], the maximum response (Emax) at 30 µM is 108% and the EC50 worked out at 0.138 µM.

Consider `[2H]C1([2H])N(c2cnc3c(c2)CN(c2nnc(C#N)cc2C)CC3)c2ccnn2C([2H])([2H])C1([2H])[2H]` [Example 416, 6-(3-(6,7-dihydropyrazolo[1,5-a]pyrimidin-4(5H)-yl-5,5,6,6,7,7-d6)-7,8-dihydro-1,6-naphthyridin-6(5H)-yl)-5-methylpyridazine-3-carbonitrile], for which the Emax at 30 µM is 115% and the EC50 is 0.116 µM.

`Cc1cc(C#N)cnc1N1CCc2ncc(N3CCO[C@H](c4ccccc4)C3)cc2C1` [Example 375, (R)-5-methyl-6-(3-(2-phenylmorpholino)-7,8-dihydro-1,6-naphthyridin-6(5H)-yl)nicotinonitrile]: the Emax at 30 µM amounted to 85% and the EC50 was 1.32 µM.

In the case of `Cc1cc(C#N)cnc1N1CCc2ncc(N3CCC(C(F)(F)F)n4nccc43)cc2C1` (centres unmarked) [Example 359, 5-methyl-6-(3-(7-(trifluoromethyl)-6,7-dihydropyrazolo[1,5-a]pyrimidin-4(5H)-yl)-7,8-dihydro-1,6-naphthyridin-6(5H)-yl)nicotinonitrile], the Emax at 30 µM amounted to 120% and the half-maximal effective concentration (EC50) amounted to 0.472 µM.

For the compound `Cc1c(Cl)nc(C(F)(F)F)nc1N1CCc2ncc(C3CC3)cc2C1` [compound 242, 6-(6-chloro-5-methyl-2-(trifluoromethyl)pyrimidin-4-yl)-3-cyclopropyl-5,6,7,8-tetrahydro-1,6-naphthyridine], the Emax at 30 µM was 83% and the EC50 amounted to 1.87 µM.

Regarding `Cc1cc(C(=O)N2CC(CO)C2)nnc1N1CCc2ncc(N3CCCn4nccc43)cc2C1` [Example 554, (6-(3-(6,7-dihydropyrazolo[1,5-a]pyrimidin-4(5H)-yl)-7,8-dihydro-1,6-naphthyridin-6(5H)-yl)-5-methylpyridazin-3-yl)(3-(hydroxymethyl)azetidin-1-yl)methanone], the maximum response (Emax) at 30 µM stood at 78% and the EC50 came out at 0.016 µM.

Turning to `Cc1c(C(=O)NCc2ccncc2)nnc(N2CCc3ncccc3C2)c1C` [compound 135, 6-(7,8-dihydro-5H-1,6-naphthyridin-6-yl)-4,5-dimethyl-N-(4-pyridylmethyl)pyridazine-3-carboxamide], the maximum response (Emax) at 30 µM was 84% and the EC50 was determined as 1.8 µM.

Turning to `FC(F)(F)c1cnc2c(c1)CN(c1nc(Cl)nc3c1CCC3)CC2` [compound 259, 6-(2-chloro-6,7-dihydro-5H-cyclopenta[d]pyrimidin-4-yl)-3-(trifluoromethyl)-5,6,7,8-tetrahydro-1,6-naphthyridine], the Emax at 30 µM came to 91% and the EC50 is 0.217 µM.

(Values after US20250230155A1 (Vanderbilt University, priority 2021, published 2025).)
